What follows are molecules tested against human metabotropic Glutamate 4 receptor (mGluR4) (Homo sapiens (Human), UniProt Q14833) (assay: Assay A: in vitro testing of mGluR4 potency (glutamate-induced cAMP lowering, HTRF cAMP)). Conditions: HEK293 cells overexpressing human mGluR4; 10 uM L-glutamic acid, 1 uM forskolin; compounds of the present invention.
Format: cell-based
Outline: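 HEK293 cells overexpressing human mGluR4 treated 30 min at room temperature with compound plus 10 uM L-glutamate, 1 uM forskolin, 0.5 mM IBMX, 0.1% BSA, 1% DMSO. cAMP read by HTRF (665/615 nm ratio), normalized to glutamate (100%) and no-glutamate (0%) controls as percent of control.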

human metabotropic Glutamate 4 receptor (mGluR4), sequence (Q14833 33-912): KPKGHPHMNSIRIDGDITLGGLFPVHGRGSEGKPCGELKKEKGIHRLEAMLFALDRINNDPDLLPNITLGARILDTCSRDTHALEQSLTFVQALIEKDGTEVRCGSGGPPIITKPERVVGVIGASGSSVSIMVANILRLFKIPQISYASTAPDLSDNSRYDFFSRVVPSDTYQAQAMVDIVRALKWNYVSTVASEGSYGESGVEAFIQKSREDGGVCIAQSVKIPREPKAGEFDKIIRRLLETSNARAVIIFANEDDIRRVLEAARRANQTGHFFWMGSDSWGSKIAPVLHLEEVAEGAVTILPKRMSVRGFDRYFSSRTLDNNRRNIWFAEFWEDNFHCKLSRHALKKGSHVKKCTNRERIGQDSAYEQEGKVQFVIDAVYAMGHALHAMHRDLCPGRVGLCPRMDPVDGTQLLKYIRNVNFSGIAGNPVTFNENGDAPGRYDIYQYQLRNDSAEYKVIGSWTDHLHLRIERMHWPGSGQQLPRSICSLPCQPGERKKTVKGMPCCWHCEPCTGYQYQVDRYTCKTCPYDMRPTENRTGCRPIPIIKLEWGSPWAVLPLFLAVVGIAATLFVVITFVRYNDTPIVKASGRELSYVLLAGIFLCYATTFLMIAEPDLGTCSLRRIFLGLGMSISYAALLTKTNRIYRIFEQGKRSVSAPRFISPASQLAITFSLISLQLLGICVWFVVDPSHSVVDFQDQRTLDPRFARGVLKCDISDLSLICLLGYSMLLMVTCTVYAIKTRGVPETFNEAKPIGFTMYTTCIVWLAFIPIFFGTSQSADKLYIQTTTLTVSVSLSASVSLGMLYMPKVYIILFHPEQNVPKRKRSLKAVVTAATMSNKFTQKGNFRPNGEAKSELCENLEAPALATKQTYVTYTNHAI

Question: With `COCCn1c(C(NC(=O)c2cnc(C)cn2)C2CCOC2)nc2cc(Cl)ccc21` (single isomer, unassigned) [Example 91-1, N-{[5-chloro-1-(2-methoxyethyl)-1H-1,3-benzodiazol-2-yl](oxolan-3-yl)methyl}-5-methylpyrazine-2-carboxamide] as the molecule, how does the IC50 read?
Answer: The IC50 was 32 nM.

Question: `Cc1cnc(C(=O)N[C@H](c2nc3cc(Cl)ccc3n2C)[C@@H]2CC2(F)F)cn1` [Example 76, N-[(S)-(5-chloro-1-methyl-1H-1,3-benzodiazol-2-yl)[(1S)-2,2-difluorocyclopropyl]methyl]-5-methylpyrazine-2-carboxamide] was tested. Which IC50 did it give?
Answer: Its IC50 is 12 nM.

Question: How did the IC50 turn out when `O=C(N[C@@H](CC1CC1)c1nc2cc(Cl)ccc2n1C1CC1)c1cnc(C(F)F)cn1` [Example 117, N-[(1S)-1-(5-chloro-1-cyclopropyl-1H-1,3-benzodiazol-2-yl)-2-cyclopropylethyl]-5-(difluoromethyl)pyrazine-2-carboaxamide] was run?
Answer: The IC50 was 8 nM.

Question: How did the IC50 turn out when `COCCn1c([C@@H](NC(=O)c2cnc(C(F)F)cn2)[C@@H]2CCOC2)nc2cc(OC(F)(F)F)ccc21` [Example 23, 5-(difluoromethyl)-N-[(S)-[1-(2-methoxyethyl)-5-(trifluoromethoxy)-1H-1,3-benzodiazol-2-yl][(3S)-oxolan-3-yl]methyl]pyrazine-2-carboxamide] was run?
Answer: The IC50 was 4 nM.

Question: For `CCn1c([C@@H](NC(=O)c2cnc(C)cn2)[C@]2(O)CCCOC2)nc2cc(C(F)(F)F)ccc21` [Example 149, N-[(R)-[1-ethyl-5-(trifluoromethyl)-1H-1,3-benzodiazol-2-yl][(3R)-3-hydroxyoxan-3-yl]methyl]-5-methylpyrazine-2-carboxamide], which IC50 is on record?
Answer: Its IC50 is 3 nM.

Question: `COCCn1c(C(NC(=O)c2cnc(C)cn2)C2CCCO2)nc2cc(C(F)(F)F)ccc21` (stereo not shown) [Example 71-3, N-{[1-(2-methoxyethyl)-5-(trifluoromethyl)-1H-1,3-benzodiazol-2-yl](oxolan-2-yl)methyl}-5-methylpyrazine-2-carboxamide] was tested. Which IC50 did it give?
Answer: The IC50 was 62 nM.

Question: Which IC50 does the source give for `CCn1c(C(NC(=O)c2cnc(C)cn2)C2CCOC2)nc2cc(C(F)(F)F)ccc21` (single isomer, unassigned) [Example 139, N-{[1-ethyl-5-(trifluoromethyl)-1H-1,3-benzodiazol-2-yl](oxolan-3-yl)methyl}-5-methylpyrazine-2-carboxamide] here?
Answer: Its IC50 is 11 nM.
